Data: publication PMC9404985, “Development of Dicationic Bisguanidine-Arylfuran Derivatives as Potent Agents against Gram-Negative Bacteria” (Antibiotics, 2022)
pEC50: −log10 of the molar value.

Assays:
[1] = tested on: K. pneumoniae (CCUG #58547); assay: Antibacterial activity against isolates (Omnilog, Biolog redox dye); format: cell-based, Klebsiella pneumoniae; details: Klebsiella pneumoniae, CCUG58547; ca-MH broth, 24 h, 37 °C
Protocol: (§1) The antibacterial activities of eight compounds (1, 3, 4, 6, 8, 10, 16, and 17) were tested against 10 different isolates of Gram-negative bacteria from human and other sources, two E. coli (CCUG #67180 and CCUG #17620/ATCC #25922, control strain), two K. pneumoniae (CCUG #58547 and CCUG #225T), two P. aeruginosa (CCUG #17619 and CCUG #59347), two A. baumannii (CCUG #57035 and CCUG #57250), E. cloacae (CCUG #6323T), and E. hormaechei (CCUG #58962) in a 96-well plate format. […] Bacterial mass from the ten isolates grown overnight on horse blood or Mueller–Hinton agar plates was suspended in ca-MH and adjusted to a final inoculum cell density of ~5 × 10^5 CFU/mL. For all assays, Biolog redox dye A diluted 100× from the stock solution was used for measurements of all ten isolates (up to a total volume of 120 µL per well). All plates included one well per isolate with only inoculum and dye but no test compound (i.e., positive control) and one well per isolate with inoculum, dye and DMSO diluted 1667×, corresponding to the DMSO concentration in the wells with the highest concentration of test compound. All measurements were performed using the Omnilog microplate reader (Biolog, Hayward, CA, USA) where the 96-well plates were read at 15 min intervals for a total of 24 h at 37 °C.

[2] = tested on: K. pneumoniae (CCUG #225T); assay: as above; format: cell-based, Klebsiella pneumoniae; details: Klebsiella pneumoniae; ca-MH broth, 24 h, 37 °C
Protocol: (§2) The antibacterial activities of eight compounds (1, 3, 4, 6, 8, 10, 16, and 17) were tested against 10 different isolates of Gram-negative bacteria from human and other sources, two E. coli (CCUG #67180 and CCUG #17620/ATCC #25922, control strain), two K. pneumoniae (CCUG #58547 and CCUG #225T), two P. aeruginosa (CCUG #17619 and CCUG #59347), two A. baumannii (CCUG #57035 and CCUG #57250), E. cloacae (CCUG #6323T), and E. hormaechei (CCUG #58962) in a 96-well plate format. The compounds to test were 3-fold diluted in six steps in cation-adjusted Mueller-Hinton (ca-MH) broth to final concentrations spanning from 30 to 0.12 µM, i.e., a 1667–416,667 times dilution from the 50 mM stocks. Bacterial mass from the ten isolates grown overnight on horse blood or Mueller–Hinton agar plates was suspended in ca-MH and adjusted to a final inoculum cell density of ~5 × 10^5 CFU/mL. For all assays, Biolog redox dye A diluted 100× from the stock solution was used for measurements of all ten isolates (up to a total volume of 120 µL per well). All plates included one well per isolate with only inoculum and dye but no test compound (i.e., positive control) and one well per isolate with inoculum, dye and DMSO diluted 1667×, corresponding to the DMSO concentration in the wells with the highest concentration of test compound. All measurements were performed using the Omnilog microplate reader (Biolog, Hayward, CA, USA) where the 96-well plates were read at 15 min intervals for a total of 24 h at 37 °C.

[3] = tested on: P. aeruginosa (CCUG #17619); assay: as above; format: cell-based, Pseudomonas aeruginosa; details: Pseudomonas aeruginosa, CCUG17619; ca-MH broth, 24 h, 37 °C
Protocol: as §2

[4] = tested on: P. aeruginosa (CCUG #59347); assay: as above; format: cell-based, Pseudomonas aeruginosa; details: Pseudomonas aeruginosa, CCUG59347; ca-MH broth, 24 h, 37 °C
Protocol: as §1

[5] = tested on: A. baumannii (CCUG #57035); assay: as above; format: cell-based, Acinetobacter baumannii; details: Acinetobacter baumannii, CCUG57035; ca-MH broth, 24 h, 37 °C
Protocol: as §1

[6] = tested on: A. baumannii (CCUG #57250); assay: as above; format: cell-based, Acinetobacter baumannii; details: Acinetobacter baumannii, ca-MH broth, 24 h, 37 °C
Protocol: as §2

E. cloacae (CCUG #6323T) = assay: as above; format: cell-based, Enterobacter cloacae; details: Enterobacter cloacae; ca-MH broth, 24 h, 37 °C
Protocol: as §2

[7] = tested on: E. hormaechei (CCUG #58962); assay: as above; format: cell-based, Enterobacter hormaechei; details: Enterobacter hormaechei, CCUG58962; ca-MH broth, 24 h, 37 °C
Protocol: as §1

[8] = tested on: E. coli (CCUG #17620/ ATCC #25922); assay: as above; format: cell-based, Escherichia coli; details: Escherichia coli; ca-MH broth, 24 h, 37 °C
Protocol: as §2

E. coli (CCUG #67180) = assay: as above; format: cell-based, Escherichia coli; details: Escherichia coli, ca-MH broth, 24 h, 37 °C
Protocol: as §2

[9] = tested on: Escherichia coli CCUG # 17620; assay: MIC of established antibiotics, micro-broth dilution; details: CCUG17620, read-out: MIC Escherichia coli CCUG 17620
[10] = tested on: Escherichia coli CCUG # 67180; assay: as above; details: CCUG67180, read-out: MIC Escherichia coli CCUG 67180
[11] = tested on: Klebsiella pneumoniae CCUG # 225T; assay: as above; details: read-out: MIC Klebsiella pneumoniae CCUG 225T
[12] = tested on: Klebsiella pneumoniae CCUG # 58547; assay: as above; details: CCUG58547, read-out: MIC Klebsiella pneumoniae CCUG 58547
[13] = tested on: Pseudomonas aeruginosa CCUG # 17619; assay: as above; details: CCUG17619, read-out: MIC Pseudomonas aeruginosa CCUG 17619
[14] = tested on: Pseudomonas aeruginosa CCUG # 59347; assay: as above; details: CCUG59347, read-out: MIC Pseudomonas aeruginosa CCUG 59347
[15] = tested on: Acinetobacter baumannii CCUG # 57250; assay: as above; details: CCUG57250, read-out: MIC Acinetobacter baumannii CCUG 57250
[16] = tested on: Acinetobacter baumannii CCUG # 57035; assay: as above; details: CCUG57035, read-out: MIC Acinetobacter baumannii CCUG 57035
[17] = tested on: Enterobacter cloacae CCUG # 6323T; assay: as above; details: read-out: MIC Enterobacter cloacae CCUG 6323T
[18] = tested on: Enterobacter hormaechei CCUG # 58962; assay: as above; details: CCUG58962, read-out: MIC Enterobacter hormaechei CCUG 58962

CO/N=C(\C(=O)N[C@@H]1C(=O)N2C(C(=O)O)=C(COC(C)=O)CS[C@H]12)c1csc(N)n1 [CTX, Cefotaxime, reference compound]
pEC50 [1]: 3.49
EC90 [1]: 478 µM
pEC50 [2]: 6.70
EC90 [2]: 0.3 µM
pEC50 [3]: 4.89
EC90 [3]: 18.4 µM
pEC50 [4]: 2.82
EC90 [4]: 1680 µM
pEC50 [5]: 3.37
EC90 [5]: 681 µM
EC90 ([6]; CCUG57250, 24 h): 48 µM
pEC50 ([6]; CCUG57250): 4.63
pEC50 (E. cloacae (CCUG #6323T)): 5.68
EC90 (E. cloacae (CCUG #6323T)): 4.5 µM
pEC50 [7]: 4.11
EC90 [7]: 158 µM
pEC50 [8]: 6.70
EC90 [8]: 0.3 µM
EC90 (E. coli (CCUG #67180); CCUG67180, 24 h): 183 µM
pEC50 (E. coli (CCUG #67180); CCUG67180): 3.79
MIC [9]: 0.25 to 0.5 µM
MIC [10]: 280 µM
MIC [11]: 0.25 µM
MIC [12]: 560 µM
MIC [13]: 36 µM
MIC [14]: > 560 µM
MIC [15]: 36 µM
MIC [16]: > 560 µM
MIC [17]: 9 to 36 µM
MIC [18]: 280 µM
